Source: PubChem BioAssay (NCI)
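96-well plates; 48 h exposure; 5 concentrations. Endpoints by linear interpolation between flanking doses. Not reached: highest tested concentration assigned. The concentration for 50% growth inhibition is given as GI50. TGI is the concentration that stops growth completely.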

Experiments:
Test in all cases: NCI tumour cell line growth inhibition, 48 h
[1] = system: SF-268 CNS
[2] = system: HCC-2998 colon
[3] = system: OVCAR-5 ovarian
[4] = system: SK-MEL-5 melanoma
[5] = system: TK-10 renal
[6] = system: MALME-3M melanoma
[7] = system: HCT-116 colon
[8] = system: KM12 colon
[9] = system: HT29 colon
[10] = system: CAKI-1 renal
[11] = system: MDA-MB-231 breast

Row | Compound | TGI [1] [µM] | TGI [2] [µM] | TGI [3] [µM] | TGI [4] [µM] | TGI [5] [µM] | TGI [6] [µM] | TGI [7] [µM] | TGI [8] [µM] | TGI [9] [µM] | TGI [10] [µM] | TGI [11] [µM] | GI50 [2] [µM] | GI50 [3] [µM] | GI50 [4] [µM] | GI50 [5] [µM] | GI50 [6] [µM] | GI50 [8] [µM] | GI50 [11] [µM]
1 | Cc1nnc(N)nc1C/C=C/C(C)Sc1ccc(Cl)cc1 (configuration not stated) | 39.9 | 31.3 | 36.9 | 22.9 | 35.9 | 33.7 | 33.8 | 20.7 | 43.8 | 33.9 | > 41.9 | – | – | – | – | – | – | –
2 | Cc1cnc2c(c1)C(=O)N(c1ccc(Br)cc1)S2(=O)=O | > 100 | > 100 | > 100 | > 100 | > 100 | > 100 | > 100 | > 100 | > 100 | > 100 | > 100 | – | – | – | – | – | – | –
3 | N#Cc1c2c(c(Nc3cccc(C(F)(F)F)c3)n3c1nc1ccccc13)CCCC2 | 43.1 | – | 46.6 | > 100 | 44.4 | 85.7 | > 100 | > 100 | 56.4 | 82.4 | 58.9 | – | – | – | – | – | – | –
4 | CCCCCCc1cc2cc(-c3cn4ccccc4n3)c(=O)oc2cc1O | 6.94 | 47.2 | 51.7 | 22.1 | 30.1 | 4.74 | 16.9 | > 67.9 | > 100 | 13.5 | 9.7 | – | – | – | – | – | – | –
5 | CCOC(OCC)[C@@H]1C[C@@H]2N(O[C@H](OC3CCCC3(c3ccccc3)c3ccccc3)[C@H](OC(C)=O)[C@@]2(CC)Cc2ccc(OC)c(OC)c2)O1 (some centres not stated) | > 100 | > 100 | > 100 | > 100 | > 100 | – | > 100 | > 100 | > 100 | > 100 | > 100 | – | – | – | – | – | – | –
6 | Cc1c2c(n3c(nc4ccccc43)c1C#N)NCC2 | > 10 | – | > 10 | > 10 | > 10 | > 10 | > 10 | > 10 | > 10 | > 10 | > 10 | – | – | – | – | – | – | –
7 | COc1c(N2CCCCC2)c2c(=O)c3ccccc3oc2c2c3ccccc3n(C)c12 | > 100 | > 100 | > 100 | > 100 | > 100 | > 100 | > 100 | > 100 | > 100 | > 100 | > 100 | – | – | – | – | – | – | –
8 | CC(C)(C)C1CCC2c3c([nH]c4ccccc34)C3C(=O)N(c4cc(Cl)ccc4Cl)C(=O)C3C2C1 (configuration not stated) | – | > 100 | > 100 | > 100 | > 100 | > 100 | > 100 | – | > 100 | > 100 | > 100 | – | – | – | – | – | – | –
9 | CC(=O)OC1CC2C(=O)CC1(C)C2(C)C (configuration not stated) | > 100 | > 100 | > 100 | > 100 | > 100 | > 100 | > 100 | > 100 | > 100 | > 100 | > 100 | – | – | – | – | – | – | –
10 | O=C1NC(NNc2ccccc2)=N/C1=C\c1ccco1 | 75.2 | 33 | > 100 | > 100 | 36.4 | 81.6 | 37.9 | 54.6 | 52.3 | 30.6 | 54.7 | – | – | – | – | – | – | –
11 | CCOC(=O)c1cc(C2CCN(Cc3ccccc3)C2=O)c(C(=O)/C=C(/C)N)[nH]1 (configuration not stated) | > 100 | > 100 | > 100 | > 100 | > 100 | > 100 | > 100 | > 100 | > 100 | > 100 | > 100 | – | – | – | – | – | – | –
12 | Cc1ccc(/C=C2\CCS(=O)(=O)c3ccccc3C2=O)cc1 | 51.6 | 28.9 | 90.7 | – | 30.9 | – | 26.1 | 30.6 | 31.9 | 33.2 | 34.6 | – | – | – | – | – | – | –
13 | CCCC1(N2C(=O)c3ccc4c5c(ccc(c35)C2=O)N(C2(CCC)CCCCC2)C4=O)CCCCC1 | > 100 | > 100 | > 100 | > 100 | > 100 | > 100 | > 100 | > 100 | > 100 | > 100 | > 100 | – | – | – | – | – | – | –
14 | C=C1C(=O)O[C@H]2C1C[C@H](O)/C(C)=C/CC[C@@]1(C)O[C@H]21 (some centres not stated) | 74.5 | 27.5 | 33.9 | 22.6 | 29.9 | 19.5 | 28.6 | 30.1 | 50.9 | 28.4 | 38.4 | – | – | – | – | – | – | –
15 | CC(Cn1c(=O)oc2ccccc21)N(C)C (configuration not stated) | > 100 | – | > 100 | > 100 | > 100 | > 100 | > 100 | > 100 | > 100 | > 100 | > 100 | – | – | – | – | – | – | –
16 | Cc1ccc2nc(-c3nccn3C)cc(C(=O)NC(C)CN(C)C)c2c1 (configuration not stated) | > 100 | – | > 100 | > 100 | > 100 | > 100 | > 100 | > 100 | > 100 | > 100 | > 100 | – | – | – | – | – | – | –
17 | C[C@@]12C[C@@H](c3ccccc3O1)N1CCCSC1=N2 | > 100 | > 100 | > 100 | > 100 | > 100 | > 100 | > 100 | > 100 | > 100 | > 100 | > 100 | – | – | – | – | – | – | –
18 | Cn1cc(-c2csc(-c3cn(CCCN4CCCCC4)c4ccc(Br)cc34)n2)c2cccnc21 | – | 3.61 | 3.01 | 3.41 | 3.16 | 3.16 | – | 3.54 | – | – | 3.21 | 1.86 | 1.57 | 1.86 | 1.69 | 1.58 | 1.89 | 1.72
19 | COc1c(-c2ccc(F)cc2)oc2c(CC(=O)O)cccc2c1=O | > 100 | > 100 | > 100 | > 100 | > 100 | > 100 | > 100 | – | > 100 | 71.5 | > 100 | – | – | – | – | – | – | –
